pEC50, pIC50: −log10 of the molar value.

EC50 and IC50 data for 24 compounds are collected here from patent publication US11066414B2, “Cot modulators and methods of use thereof” (Gilead Sciences, Inc., priority 2015, dated 2021).

For assay [1], the system named is TNFα. The experiment in a line: Cot Monocyte TNFα Cell Based Assay. The settings on record: Homo sapiens, Monocyte, read-out: EC50 TNF, LPS-stimulated human monocytes, TNFα.
The target in assay [2] is Human Cot (Homo sapiens (Human), UniProt P41279). The experiment in a line: High Throughput Cot Biochemical Assay. The settings on record: IC50 HTRF, Cot HTRF (TR-FRET) biochemical assay.
Sequence of Human Cot (P41279 30-397): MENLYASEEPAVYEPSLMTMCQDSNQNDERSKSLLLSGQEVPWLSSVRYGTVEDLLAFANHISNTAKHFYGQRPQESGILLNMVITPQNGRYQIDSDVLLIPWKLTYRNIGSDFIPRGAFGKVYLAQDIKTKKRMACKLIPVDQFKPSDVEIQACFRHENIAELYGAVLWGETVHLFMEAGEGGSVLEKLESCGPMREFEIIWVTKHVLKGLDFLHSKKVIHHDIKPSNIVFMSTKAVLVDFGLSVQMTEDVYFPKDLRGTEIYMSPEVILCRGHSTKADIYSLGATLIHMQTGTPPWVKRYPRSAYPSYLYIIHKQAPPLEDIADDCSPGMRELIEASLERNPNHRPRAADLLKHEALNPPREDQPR

In the case of `[2H][C@](Nc1cc(Cl)c2ncc(C#N)c(Nc3cnc(F)c(Cl)c3)c2c1)(c1ccc(F)nc1)c1cn(C2CC2)nn1` [Example 139, (S)-8-chloro-4-((5-chloro-6-fluoropyridin-3-yl)amino)-6-(((1-cyclopropyl-1H-1,2,3-triazol-4-yl)(6-fluoropyridin-3-yl)methyl-d)amino)quinoline-3-carbonitrile], in assay [1], the negative-log EC50 (pEC50) is 7.04. The compound further had a pIC50 in assay [2] of 8.70.
As to `[2H][C@](Nc1cc(Cl)c2ncc(C#N)c(Nc3cnc(F)c(F)c3)c2c1)(c1ccc(F)nc1)c1cn(C2CC2)nn1` [Example 140, (S)-8-chloro-6-(((1-cyclopropyl-1H-1,2,3-triazol-4-yl)(6-fluoropyridin-3-yl)methyl-d)amino)-4-((5,6-difluoropyridin-3-yl)amino)quinoline-3-carbonitrile], the pEC50 in assay [1] is 6.74. The pIC50 in assay [2] is 8.52.
Taken in the same sequence, the figures for `[2H][C@](Nc1cc(Cl)c2ncc(C#N)c(NCC(C)(C)C)c2c1)(c1cccnc1)c1cn(C2CC2)nn1` [Example 141, (S)-8-chloro-6-(((1-cyclopropyl-1H-1,2,3-triazol-4-yl)(pyridin-3-yl)methyl-d)amino)-4-(neopentylamino)quinoline-3-carbonitrile] were 6.92 and 8.70.
Taken in the same sequence, the figures for `[2H][C@](Nc1cc(Cl)c2ncc(C#N)c(NCC(C)(C)C)c2c1)(c1ccc(F)nc1)c1cn(C2CC2)nn1` [Example 142, (S)-8-chloro-6-(((1-cyclopropyl-1H-1,2,3-triazol-4-yl)(6-fluoropyridin-3-yl)methyl-d)amino)-4-(neopentylamino)quinoline-3-carbonitrile] were 7.18 and 8.70.
Taken in the same sequence, the figures for `[2H][C@](Nc1cc(Cl)c2ncc(C#N)c(Nc3cnc(F)c(F)c3)c2c1)(c1cncc(C#N)c1)c1cn(C2CC2)nn1` [Example 143, (S)-8-chloro-6-(((5-cyanopyridin-3-yl)(1-cyclopropyl-1H-1,2,3-triazol-4-yl)methyl-d)amino)-4-((5,6-difluoropyridin-3-yl)amino)quinoline-3-carbonitrile] were 6.05 and 7.80.
`N#Cc1cnc2c(Cl)cc(N[C@@H](c3cncc(Cl)c3)c3cn(C4CC4)nn3)cc2c1Nc1cnc(F)c(F)c1` [Example 146, (S)-8-chloro-6-(((5-chloropyridin-3-yl)(1-cyclopropyl-1H-1,2,3-triazol-4-yl)methyl)amino)-4-((5,6-difluoropyridin-3-yl)amino)-quinoline-3-carbonitrile]: the negative logarithm of the EC50 (pEC50) in assay [1] is 6.43. This compound gave a pIC50 in assay [2] of 8.00.
Taken in the same sequence, the figures for `N#Cc1cnc2c(Cl)cc(N[C@H](c3cn(C4CC4)nn3)c3ccc(F)nc3F)cc2c1Nc1cnc(F)c(F)c1` [Example 149, (S)-8-chloro-6-(((1-cyclopropyl-1H-1,2,3-triazol-4-yl)(2,6-difluoropyridin-3-yl)methyl)amino)-4-((5,6-difluoropyridin-3-yl)amino)quinoline-3-carbonitrile] were 6.42 and 8.10.
Taken in the same sequence, the figures for `Cc1ncccc1[C@H](Nc1cc(Cl)c2ncc(C#N)c(Nc3cnc(F)c(F)c3)c2c1)c1cn(C2CC2)nn1` [Example 150, (S)-8-chloro-6-(((1-cyclopropyl-1H-1,2,3-triazol-4-yl)(2-methylpyridin-3-yl)methyl)amino)-4-((5,6-difluoropyridin-3-yl)amino)quinoline-3-carbonitrile] were 6.81 and 8.40.
Taken in the same sequence, the figures for `N#Cc1cnc2c(Cl)cc(N[C@H](c3c[nH]nn3)c3cccnc3F)cc2c1Nc1cnc(F)c(F)c1` [Example 151, (S)-8-chloro-4-((5,6-difluoropyridin-3-yl)amino)-6-(((2-fluoropyridin-3-yl)(1H-1,2,3-triazol-4-yl)methyl)amino)quinoline-3-carbonitrile] were 5.88 and 8.10.
As to `N#Cc1cnc2c(Cl)cc(N[C@@H](c3cncc(Cl)c3)c3c[nH]nn3)cc2c1Nc1cnc(F)c(F)c1` [Example 152, (S)-8-chloro-6-(((5-chloropyridin-3-yl)(1H-1,2,3-triazol-4-yl)methyl)amino)-4-((5,6-difluoropyridin-3-yl)amino)quinoline-3-carbonitrile], the pEC50 in assay [1] was 6.04. The same compound showed a negative logarithm of the IC50 (pIC50) in assay [2] of 8.00.
In the case of `N#Cc1cnc2c(Cl)cc(N[C@H](c3c[nH]nn3)c3cnccc3Cl)cc2c1Nc1cnc(F)c(F)c1` [Example 153, (S)-8-chloro-6-(((4-chloropyridin-3-yl)(1H-1,2,3-triazol-4-yl)methyl)amino)-4-((5,6-difluoropyridin-3-yl)amino)quinoline-3-carbonitrile], in assay [1], the negative-log EC50 (pEC50) was 5.42. For the same compound, the pIC50 in assay [2] was 7.36.
Taken in the same sequence, the figures for `N#Cc1cnc2c(Cl)cc(N[C@H](c3c[nH]nn3)c3ccc(F)nc3F)cc2c1Nc1cnc(F)c(F)c1` [Example 154, (S)-8-chloro-6-(((2,6-difluoropyridin-3-yl)(1H-1,2,3-triazol-4-yl)methyl)amino)-4-((5,6-difluoropyridin-3-yl)amino)quinoline-3-carbonitrile] were 5.78 and 7.59.
With `[2H][C@](Nc1cc(Cl)c2ncc(C#N)c(N[C@H](CC)c3ccccc3)c2c1)(c1ccc(F)nc1)c1cn(C2CC2)nn1` [Example 155, 8-chloro-6-(((S)-(1-cyclopropyl-1H-1,2,3-triazol-4-yl)(6-fluoropyridin-3-yl)methyl-d)amino)-4-(((R)-1-phenylpropyl)amino)quinoline-3-carbonitrile], in assay [1], the negative logarithm of the EC50 (pEC50) was 7.10. Besides, the negative logarithm of the IC50 (pIC50) in assay [2] was 8.70.
Taken in the same sequence, the figures for `CC(C)n1cc([C@@H](Nc2cc(Cl)c3ncc(C#N)c(Nc4ccc(F)c(Cl)c4)c3c2)c2cccn3nccc23)nn1` [Example 157, (S)-8-chloro-4-((3-chloro-4-fluorophenyl)amino)-6-(((1-isopropyl-1H-1,2,3-triazol-4-yl)(pyrazolo[1,5-a]pyridin-4-yl)methyl)amino)-quinoline-3-carbonitrile] were 6.90 and 8.30.
Taken in the same sequence, the figures for `[2H][C@](Nc1cc(Cl)c2ncc(C#N)c(N[C@H](CC)c3ccccc3)c2c1)(c1cccnc1)c1cn(C2CC2)nn1` [Example 159, 8-chloro-6-(((S)-(1-cyclopropyl-1H-1,2,3-triazol-4-yl)(pyridin-3-yl)methyl-d)amino)-4-(((R)-1-phenylpropyl)amino)quinoline-3-carbonitrile] were 7.02 and 8.70.
Taken in the same sequence, the figures for `N#Cc1cnc2c(Cl)cc(N[C@@H](c3cccnc3)c3cn(-c4ccccc4)nn3)cc2c1Nc1cnc(F)c(F)c1` [Example 160, (S)-8-chloro-4-((5,6-difluoropyridin-3-yl)amino)-6-(((1-phenyl-1H-1,2,3-triazol-4-yl)(pyridin-3-yl)methyl)amino)quinoline-3-carbonitrile] were 6.32 and 7.96.
`[2H][C@](Nc1cc(Cl)c2ncc(C#N)c(Nc3cnc(F)c(F)c3)c2c1)(c1cccnc1)c1cn(-c2ccccc2)nn1` [Example 162, (S)-8-chloro-4-((5,6-difluoropyridin-3-yl)amino)-6-(((1-phenyl-1H-1,2,3-triazol-4-yl)(pyridin-3-yl)methyl-d)amino)quinoline-3-carbonitrile]: in assay [1], the negative-log EC50 (pEC50) is 6.37. The negative logarithm of the IC50 (pIC50) in assay [2] is 8.15.
On to `[2H][C@](Nc1cc(Cl)c2ncc(C#N)c(Nc3cnc(F)c(F)c3)c2c1)(c1cccnc1)c1c[nH]nn1` [Example 164, (S)-8-chloro-4-((5,6-difluoropyridin-3-yl)amino)-6-((pyridin-3-yl(1H-1,2,3-triazol-4-yl)methyl-d)amino)quinoline-3-carbonitrile], for which the pEC50 in assay [1] was 5.74. In assay [2], this compound showed a pIC50 of 8.30.
For `Cn1nccc1[C@H](Nc1cc(Cl)c2ncc(C#N)c(Nc3cnc(F)c(F)c3)c2c1)c1c[nH]nn1` [Example 165, (S)-8-chloro-4-((5,6-difluoropyridin-3-yl)amino)-6-(((1-methyl-1H-pyrazol-5-yl)(1H-1,2,3-triazol-4-yl)methyl)amino)quinoline-3-carbonitrile], in assay [1], the negative-log EC50 (pEC50) is 5.63. This compound showed a pIC50 in assay [2] of 8.05.
Taken in the same sequence, the figures for `N#Cc1cnc2c(Cl)cc(N[C@@H](c3ccc(F)nc3)c3c[nH]nn3)cc2c1Nc1cnc(F)c(F)c1` [Example 166, (S)-8-chloro-4-((5,6-difluoropyridin-3-yl)amino)-6-(((6-fluoropyridin-3-yl)(1H-1,2,3-triazol-4-yl)methyl)amino)quinoline-3-carbonitrile] were 5.85 and 8.22.
Taken in the same sequence, the figures for `CC(C)(C)CNc1c(C#N)cnc2c(Cl)cc(N[C@@H](c3cccnc3)c3c[nH]nn3)cc12` [Example 167, (S)-8-chloro-4-(neopentylamino)-6-((pyridin-3-yl(1H-1,2,3-triazol-4-yl)methyl)amino)quinoline-3-carbonitrile] were 6.30 and 8.40.
Taken in the same sequence, the figures for `CC(C)(C)CNc1c(C#N)cnc2c(Cl)cc(N[C@@H](c3cccnc3)c3cn(C4COC4)nn3)cc12` [Example 168, (S)-8-chloro-4-(neopentylamino)-6-(((1-(oxetan-3-yl)-1H-1,2,3-triazol-4-yl)(pyridin-3-yl)methyl)amino)quinoline-3-carbonitrile] were 6.40 and 8.22.
Regarding `Cc1ncccc1[C@H](Nc1cc(Cl)c2ncc(C#N)c(N[C@H](C)c3ccccc3)c2c1)c1cn(C2COC2)nn1` [Example 171, 8-chloro-6-(((S)-(2-methylpyridin-3-yl)(1-(oxetan-3-yl)-1H-1,2,3-triazol-4-yl)methyl)amino)-4-(((R)-1-phenylethyl)amino)quinoline-3-carbonitrile], the pEC50 in assay [1] was 6.49. This compound also had a pIC50 in assay [2] of 8.00.
Taken in the same sequence, the figures for `Cc1ncccc1[C@H](Nc1cc(Cl)c2ncc(C#N)c(Nc3cnc(F)c(F)c3)c2c1)c1cn(C2COC2)nn1` [Example 172, (S)-8-chloro-4-((5,6-difluoropyridin-3-yl)amino)-6-(((2-methylpyridin-3-yl)(1-(oxetan-3-yl)-1H-1,2,3-triazol-4-yl)methyl)amino)quinoline-3-carbonitrile] were 6.08 and 8.00.
